# How the values were obtained:
# Dihydrofolate reductase [1] = target: T1, Dihydrofolate reductase (Homo sapiens, UniProt P00374); assay: Apparent dissociation constant at pH 6.6 for human dihydrofolate reductase in the absence of cofactor NADPH
# T1 sequence (P00374 whole entry): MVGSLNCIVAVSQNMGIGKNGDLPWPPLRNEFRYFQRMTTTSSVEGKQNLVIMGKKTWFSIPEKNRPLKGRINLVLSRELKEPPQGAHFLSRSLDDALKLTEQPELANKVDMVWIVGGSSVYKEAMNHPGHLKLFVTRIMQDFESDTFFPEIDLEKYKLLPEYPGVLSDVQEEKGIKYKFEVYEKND
# Dihydrofolate reductase [2] = target: T1, Dihydrofolate reductase; assay: Apparent dissociation constant at pH 6.6 for human dihydrofolate reductase in the presence of cofactor NADPH
# Dihydrofolate reductase [3] = target: T1, Dihydrofolate reductase; assay: Tested for the apparent dissociation constant for binding of compound to binary NADPH complex with human dihydrofolate reductase using equation 11
# Dihydrofolate reductase [4] = target: T1, Dihydrofolate reductase; assay: Tested for the apparent dissociation constant for binding of compound to binary NADPH complex with human dihydrofolate reductase using equation 4
# Dihydrofolate reductase [5] = target: T1, Dihydrofolate reductase; assay: Tested for the apparent dissociation constant for binding of compound to binary NADPH complex with human dihydrofolate reductase using equations 11 and 12
# Dihydrofolate reductase [6] = target: T1, Dihydrofolate reductase; assay: Tested for the apparent dissociation constant for binding of compound to ternary NADPH complex with human dihydrofolate reductase using equation 11
# Dihydrofolate reductase [7] = target: T1, Dihydrofolate reductase; assay: Tested for the apparent dissociation constant for binding of compound to ternary NADPH complex with human dihydrofolate reductase using equation 4
# Dihydrofolate reductase [8] = target: T1, Dihydrofolate reductase; assay: Tested for the apparent dissociation constant for binding of compound to ternary NADPH complex with human dihydrofolate reductase using equations 15 and 16
# Dihydrofolate reductase [9] = target: T1, Dihydrofolate reductase; assay: Tested for the apparent dissociation constant for binding of compound to binary NADPH complex with human dihydrofolate reductase using equation 16
SMILES,Kd (Dihydrofolate reductase [1]) [nM],Kd (Dihydrofolate reductase [2]) [nM],Kd (Dihydrofolate reductase [3]) [nM],Kd (Dihydrofolate reductase [4]) [nM],Kd (Dihydrofolate reductase [5]) [nM],Kd (Dihydrofolate reductase [6]) [nM],Kd (Dihydrofolate reductase [7]) [nM],Kd (Dihydrofolate reductase [8]) [nM],Kd (Dihydrofolate reductase [9]) [nM]
CC(C)N1C=CC=C2C(=O)NC(N)N=C21 (stereo unspecified),34000,1900,,,,,,,
CCN1C=C(C)C=C2C(=O)NC(N)N=C21 (stereo unspecified),130000,16000,,,,,,,
CCN1C=CC=C2C(=O)NC(N)N=C21 (stereo unspecified),60000,13000,,,,,,,
NC1N=C2C(=CC=CN2Cc2ccccc2)C(=O)N1 (stereo unspecified),1700,700,,,,,,,
CCCN1C(C)=CC=C2C(=O)NC(N)N=C21 (stereo unspecified),3400,2000,2700,0.5,1200,450,0.6,1000,2800
CN1C=CC=C2C(=O)NC(N)N=C21 (stereo unspecified),118000,21000,,,,,,,
CCCN1C=CC=C2C(=O)NC(N)N=C21 (stereo unspecified),12000,4000,6500,20.7,5800,830,2.6,1700,2100
CCCN1C=C(C)C=C2C(=O)NC(N)N=C21 (stereo unspecified),108000,4600,,,,,,,
CC1=C2C(=O)NC(N)N=C2N(CCC(C)C)C=C1 (stereo unspecified),1800,700,,,,,,,
CC1=C2C(=O)NC(N)N=C2N(CC(C)C)C=C1 (stereo unspecified),2400,80,3000,0.2,2600,30,0.1,57,2200
CC1=CN(C(C)C)C2=NC(N)NC(=O)C2=C1 (stereo unspecified),60000,18000,,,,,,,
CC(C)CN1C=CC=C2C(=O)NC(N)N=C21 (stereo unspecified),2200,600,,,,,,,
CC1=CC=C2C(=O)NC(N)N=C2N1C (stereo unspecified),21000,2900,,,,,,,
CC1=C2C(=O)NC(N)N=C2N(C)C=C1 (stereo unspecified),21000,5100,,,,,,,
CC1=CN(C)C2=NC(N)NC(=O)C2=C1 (stereo unspecified),31000,500,,,,,,,

# Reference: ChEMBL document CHEMBL1127798, “Structure-activity relationships and pH dependence of binding of 8-alkyl-N5-deazapterins to dihydrofolate reductase” (J Med Chem, 1994)
